Where “and” joins values, the source holds several entries; their conditions need not be identical. Identical values can stand only once.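 Assay format: 96-well plates, 48-hour exposure. GI50: concentration for 50% inhibition of growth. At the TGI there is no net growth.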 Bounds are passed on as bounds.

Among the test systems are SF-539 CNS; UACC-257 melanoma; RPMI-8226 leukemia; HCC-2998 colon; SF-295 CNS; SK-OV-3 ovarian; 786-0 renal; NCI-H460 lung; NCI-H226 lung; TK-10 renal.
What all share (assay): NCI-60 cell line screen, 48 h

For `COc1cc2ncn(-c3cc(OCc4ccccc4C(F)(F)F)c(C(C)=O)s3)c2cc1OC`, the GI50 with SF-539 CNS, in the experiment on UACC-257 melanoma, in the experiment with RPMI-8226 leukemia, in the experiment with HCC-2998 colon, with SF-295 CNS and with SK-OV-3 ovarian was greater than 25 µM in each case. Also, the GI50 with 786-0 renal, in the experiment with NCI-H460 lung, with NCI-H226 lung and in the experiment with TK-10 renal was greater than 25 µM in each case. Moreover, the TGI in the experiment on SF-539 CNS, in the experiment with UACC-257 melanoma, in the experiment with RPMI-8226 leukemia, with HCC-2998 colon, in the experiment on SF-295 CNS and with SK-OV-3 ovarian was greater than 25 µM each time. Also, the TGI in the experiment with 786-0 renal, in the experiment on NCI-H460 lung, in the experiment with NCI-H226 lung and in the experiment on TK-10 renal was greater than 25 µM throughout.

Consider `Cc1nnc(-c2ccc(C)c(-c3ccc(C(=O)NCc4ccc(Cl)cc4)cc3)c2)o1`, for which the GI50 was greater than 22.7 µM in the experiment with SF-539 CNS; 8.07 µM with UACC-257 melanoma; 10.2 µM in the experiment with RPMI-8226 leukemia; 17.5 µM in the experiment on HCC-2998 colon; 7.16 µM in the experiment on SF-295 CNS; 9.53 µM with SK-OV-3 ovarian. Besides, the GI50 in the experiment with 786-0 renal was 18.7 µM; in the experiment on NCI-H460 lung, 11.9 µM; with NCI-H226 lung, 6.93 µM; in the experiment on TK-10 renal it was greater than 15.7 µM. For the same molecule, the TGI in the experiment with SF-539 CNS, in the experiment on UACC-257 melanoma, in the experiment with RPMI-8226 leukemia, with HCC-2998 colon, in the experiment with SF-295 CNS and in the experiment with SK-OV-3 ovarian was greater than 25 µM throughout. Besides, the TGI in the experiment on 786-0 renal, in the experiment on NCI-H460 lung, with NCI-H226 lung and with TK-10 renal was greater than 25 µM each time.

As to `O=C(O)CCSC(=S)Nc1cccc(F)c1`, the TGI is greater than 100 µM in the experiment with SF-539 CNS; 53.2 µM in the experiment on UACC-257 melanoma; greater than 100 µM in the experiment with RPMI-8226 leukemia; greater than 100 µM with HCC-2998 colon; greater than 100 µM in the experiment on SF-295 CNS; greater than 100 µM in the experiment on SK-OV-3 ovarian. Also, the TGI with 786-0 renal, in the experiment with NCI-H460 lung, in the experiment with NCI-H226 lung and with TK-10 renal was greater than 100 µM throughout.

On to `Cc1ccc(/C=C(\C#N)c2ccccc2)cc1`, for which the TGI with SF-539 CNS, in the experiment on UACC-257 melanoma, in the experiment on RPMI-8226 leukemia, in the experiment on HCC-2998 colon, in the experiment with SF-295 CNS and with SK-OV-3 ovarian was greater than 100 µM in each case. Also, the TGI with 786-0 renal, with NCI-H460 lung, with NCI-H226 lung and with TK-10 renal was greater than 100 µM in each case.

In the case of `CC(C)(C)NC/C(=C\c1ccccc1)C(=O)c1ccccc1`, the GI50 in the experiment with SF-539 CNS was 3.01 µM; in the experiment on UACC-257 melanoma, 2.12 µM; in the experiment on RPMI-8226 leukemia, 2.14 µM; in the experiment on HCC-2998 colon, 1.74 µM; in the experiment on SF-295 CNS, 2.86 µM; with SK-OV-3 ovarian it was 3.83 µM. Further, the GI50 is 1.95 µM with 786-0 renal, 1.88 µM with NCI-H460 lung, 2.2 µM in the experiment on NCI-H226 lung and 0.94 µM in the experiment with TK-10 renal. The TGI with SF-539 CNS is 7.2 µM; in the experiment with UACC-257 melanoma it was 6.91 µM; in the experiment on RPMI-8226 leukemia, 7.31 µM; in the experiment with HCC-2998 colon it was 3.35 µM; with SF-295 CNS, 11.4 µM; in the experiment on SK-OV-3 ovarian it was 13.8 µM. Further, the TGI was 4.01 µM with 786-0 renal, 4.57 µM in the experiment with NCI-H460 lung, 11.2 µM with NCI-H226 lung and 2.28 µM in the experiment with TK-10 renal.

With `Cc1cc(NNC(=O)c2ccccc2O)nc(Nc2nc3ccccc3o2)n1`, the GI50 in the experiment with SF-539 CNS is 1.41 µM; with UACC-257 melanoma, 3.25 µM; with RPMI-8226 leukemia, 1.85 µM; in the experiment on HCC-2998 colon, 2.13 µM; in the experiment with SF-295 CNS it was 0.846 µM; in the experiment on SK-OV-3 ovarian, 0.633 µM. The GI50 with 786-0 renal is 1.8 µM; with NCI-H460 lung, 0.422 µM; with NCI-H226 lung, 1.66 µM; in the experiment on TK-10 renal, 2.73 µM. For the same molecule, the TGI in the experiment with SF-539 CNS amounted to 11.2 µM; in the experiment on UACC-257 melanoma, 11.5 µM; in the experiment with RPMI-8226 leukemia, 13.9 µM; with HCC-2998 colon it was 13.8 µM; in the experiment with SF-295 CNS, 14.4 µM; in the experiment with SK-OV-3 ovarian, 2.22 µM. Also, the TGI came out at 7.98 µM in the experiment with 786-0 renal, 6.77 µM in the experiment on NCI-H460 lung, 8.47 µM in the experiment with NCI-H226 lung and 23.4 µM with TK-10 renal.

Regarding `COc1ccc(/C=C\c2cc(OC)c(OC)c(OC)c2)c(O)c1O`, the GI50 is < 0.0264 µM and 0.05 µM with SF-539 CNS; 0.142 µM with UACC-257 melanoma; 0.0635 µM in the experiment on RPMI-8226 leukemia; 0.0286 µM in the experiment with SF-295 CNS; 0.586 µM and 1.68 µM with SK-OV-3 ovarian; 0.106 µM in the experiment with NCI-H460 lung. For the same molecule, in the experiment with NCI-H226 lung, the GI50 was 0.297 µM and 0.05 µM. Also, the TGI is 0.0821 µM and 0.2 µM in the experiment on SF-539 CNS; 28.7 µM and 52.3 µM in the experiment on UACC-257 melanoma; 20.9 µM and 9.14 µM with RPMI-8226 leukemia; 2.47 µM and 3.06 µM with HCC-2998 colon; 15.1 µM and 48.3 µM with SK-OV-3 ovarian; 16.3 µM in the experiment on 786-0 renal. Also, the TGI with NCI-H460 lung is 9.22 µM and 4.42 µM; with NCI-H226 lung, 1.69 µM and 1.62 µM; with TK-10 renal, 55.8 µM.

Regarding `O=C(O)CCSC(=O)Nc1ccccc1Cl`, the TGI in the experiment with SF-539 CNS, with UACC-257 melanoma, in the experiment with RPMI-8226 leukemia, in the experiment on HCC-2998 colon, with SF-295 CNS and in the experiment with SK-OV-3 ovarian was greater than 100 µM in each case. The TGI in the experiment with 786-0 renal, in the experiment on NCI-H460 lung, in the experiment on NCI-H226 lung and in the experiment with TK-10 renal was greater than 100 µM in each case.

As for `C=C1CCC2C3(C)COC(c4ccc(Cl)cc4)OC3CCC2(C)C1/C=C/C1=CCOC1=O` (stereo unspecified), the GI50 in the experiment on SF-539 CNS is 11.2 µM; with UACC-257 melanoma it was 4.63 µM; with RPMI-8226 leukemia it was 0.602 µM; with HCC-2998 colon it was 6.73 µM; in the experiment with SF-295 CNS, 1.83 µM; with SK-OV-3 ovarian, 16.7 µM. In addition, the GI50 in the experiment on 786-0 renal was 29.8 µM; in the experiment on NCI-H460 lung, 4.42 µM; in the experiment on NCI-H226 lung, 7.06 µM; in the experiment on TK-10 renal it was 14.4 µM. Moreover, the TGI was greater than 100 µM in the experiment with SF-539 CNS; greater than 100 µM in the experiment with UACC-257 melanoma; greater than 100 µM in the experiment on RPMI-8226 leukemia; greater than 100 µM with HCC-2998 colon; 22.5 µM in the experiment with SF-295 CNS; 74.5 µM with SK-OV-3 ovarian. For the same molecule, the TGI with 786-0 renal, with NCI-H460 lung, in the experiment with NCI-H226 lung and in the experiment with TK-10 renal was greater than 100 µM in each case.

(Values after PubChem BioAssay (NCI).)
